Patent publication US20110104300A1, “Methods for Screening Chemical, Biological, and Physical Agents for Disinfecting Infectious Norovirus” (KIM LABORATORIES, INC., priority 2009, published 2011)

Tests used:
[1] = system: Norovirus; assay: Suspension testing: Norovirus-positive stool in suspension, test agent, PBST neutralization, IMS bead capture, qRT-PCR; set-up: species or system human; settings: for antiviral activity against Norovirus (in words): nanosilver at any concentration tested, alcohol up to 70%; for Log Reduction: Suspension
[2] = system: Human Norovirus; assay: Hard surface testing: Norovirus-positive stool dried on surface, test agent, PBST neutralization, IMS bead capture, qRT-PCR
Experimental: For this method, a Norovirus-positive human stool sample was allowed to dry on the surface of a material. A sterilized surface material (e.g., stainless steel, ceramic, porcelain, or fabric, etc.), in this case a round stainless steel plate, was placed into the center of a sterile deep Petri dish. 20 μl of Norovirus-positive human stool sample was added to the center of the stainless steel plate. The stool sample was dried onto the surface of the material for 30 minutes at room temperature.
100 μl of a test agent (e.g., a chemical disinfectant) was added on top of the dried stool sample. 100 μl of a neutral buffer, phosphate buffered saline-TWEEN® 20 (polysorbate) (PBST), was used as a negative control (in place of the test agent). 100 μl of 20% household bleach, (10500 ppm sodium hypochlorite, prepared fresh) was used as a positive control (in place of the test agent). The sample and the test agent, neutral buffer, and either 20% household bleach or 10500 ppm sodium hypochlorite were incubated at room temperature for as short as one minute to as long as 60 minutes.
40 ml of PBST was added over the surface to fully submerge the surface material and to dislodge the entire dried stool sample. 40 ml PBST acts as a neutralizer for the test compound by dilution. If necessary, the dried stool sample was scraped with the end of a sterile pipette tip. The mixture was shaken for 15 minutes (at ˜150 rpm) in an orbital shaker at room temperature.
The supernatant is transferred to a 50 ml screw cap centrifuge tube (or similar container). 10-100 μl of Norovirus specific antibody conjugated IMS beads were added, and the resulting mixture was incubated for 1-2 hours with end over rotation (5-10 RPM). The Norovirus specific antibody was monoclonal antibody P2B2 (Kim Laboratories, Inc., Rantoul, Ill.). A tube was placed in a magnetic stand for 15 minutes to capture the IMS beads. The supernatant was removed, with care being taken not to dislodge the IMS beads. […]

`O=C(O)CC(O)(CC(=O)O)C(=O)O` [Citric Acid Solution, Citric Acid] was tested, and the “antiviral activity against Norovirus (in words)” value ([1]; Suspension testing) was “ineffective” and the “Log Reduction” value ([1]; 0.6%) was 1.26 log.

`CCO` [Ethanol solution, Ethanol] was tested, and the “Log Reduction” value ([1]; 70%) was 1.3 log.

In the case of `OCl` [Sodium Hypochlorite], the “Norovirus disinfection (in words)” value ([1]; Suspension testing, bleach dilution more than 2-3 weeks old, data not shown) is reported as “not effective”, the “antiviral activity against Norovirus (in words)” value ([1]; Suspension testing) is reported as “showed antiviral activity” and the “Log Reduction” value ([1]; 20% of household bleach by Clorox brand) is reported as greater than 5 log. The “Log Reduction” value ([2]; Hard surface (porcelain tile), 20% of household bleach by Clorox brand) was greater than 5 log, the “Norovirus disinfection (in words)” value ([2]; Hard surface testing, bleach dilution more than 2-3 weeks old) was “not effective” and the “antiviral activity against Human Norovirus (in words)” value ([2]; Hard surface testing, nanosilver at any concentration tested) was “showed antiviral activity”.

For `CCO` [alcohol], the “antiviral activity against Norovirus (in words)” value ([1]; Suspension testing) was “ineffective”.

With `OO` [hydrogen peroxide] the “antiviral activity against Norovirus (in words)” value ([1]; Suspension testing) was “ineffective”.

In the case of `CC(O)C(=O)O` (centres unmarked) [lactic acid], the “antiviral activity against Norovirus (in words)” value ([1]; Suspension testing) is reported as “ineffective”.

In the case of `O=S(=O)([O-])O[O-].[K+].[K+]` [potassium peroxymonosulfate], the “antiviral activity against Norovirus (in words)” value ([1]; Suspension testing) is reported as “ineffective”.

For Povidone Iodine, the “Log Reduction” value ([1]; 5%) was 1.1 log.
